# Test results taken from US11192849B2, “Compounds, compositions, and methods for modulating ferroptosis and treating excitotoxic disorders” (THE TRUSTEES OF COLUMBIA UNIVERSITY IN THE CITY OF NEW YORK, priority 2013, dated 2021).
# How the values were obtained:
# HT-1080 cells [1] = experiment: Inhibition of erastin (10 μM)-induced death in HT-1080 cells (Alamar Blue); assay type: cell-based, human; conditions: for prevention of erastin-induced death: erastin-treated HT-1080 cells
# Method in brief: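 HT-1080 cells (1,000/well) were treated next day with 10 μM erastin plus a compound dilution series for 24 h. Alamar Blue (10% final) was then added for 6 h and fluorescence read at ex/em 530/590.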
# [2] = 2,2-Diphenyl-1-picrylhydrazyl (DPPH) cell-free antioxidant assay; assay type: biochemical; conditions: test compound 0.05 mM, 30 minutes
# Method: The stable radical DPPH (Blois, 1958) was dissolved in methanol to a final working concentration of 0.05 mM. This was prepared as follows. First, a 100× stock concentration (5 mM) was prepared by dissolving 3.9 mg DPPH in 2 mL methanol. Then, for 25 mL of 0.05 mM final working solution, 250 μL of the 5 mM solution was added to 24.75 mL of methanol. 1 mL of DPPH solution was added to a small volume (<5 μL) each test compound dissolved in DMSO. The final concentration of each test compound was 0.05 mM. Samples were inverted several times and allowed to incubate at room temperature for 30 minutes. Samples were then aliquoted to white 96-well solid-bottom dishes (Corning) and absorbance at 517 nm was recorded using a TECAN M200 plate reader. All values were normalized to background (methanol only). The experiment was repeated three times and the data was averaged.
# In parallel with the above cell-based assay, a 2,2-diphenyl-1-picrylhydrazyl (DPPH) assay was used to examine the ability of each analog to scavenge free radicals in a cell-free in vitro solution—a test of intrinsic antioxidant capacity. […] Redox active analogs scavenged the DPPH radical by 60-90% within 30 minutes (FIG. 18a).
# HT-1080 cells [3] = experiment: Acridine orange relocalization (lysosomal membrane permeabilization) in HT-1080 cells; assay type: cell-based, human; conditions: acridine orange re-localization
# Method: 200,000 HT-1080 cells were seeded into 6-well dishes (Corning). The next day, cells were incubated with 25 ng/mL of AO for 15 minutes, then medium was removed and cells were incubated in growth medium for 15 minutes. […] Relocalization of AO from lysosomes (discrete red puncta) to the cytosol (diffuse green color) was determined using an EVOS fl digital inverted fluorescent microscope (Advanced Microscopy Group) equipped with GFP (ex/em 470/525) and RFP (ex/em 531/593) light cubes.
# [4] = system: rat organotypic hippocampal slice culture (OHSC); experiment: Glutamate excitotoxic injury in organotypic hippocampal slice cultures (PI uptake); assay type: cell-based; conditions: 5 mM L-glutamate 3 hours; Fer-1 2 μM, CPX 5 μM, MK-801 10 μM; 24 hours
# Method: OHSCs were cultured as previously described (Morrison et al., 2002) with approval from Columbia University's Institutional Animal Care and Use Committee (IACUC). Briefly, Sprague Dawley rat pups (P8-P10) were rapidly decapitated, and the hippocampus placed in ice-cold Gey's balanced salt solution (Sigma). 400 μm thick sections were cut using a Mcllwain tissue chopper and immediately plated on Millicell cell culture inserts (Millipore, Billerica, Mass.) in Neurobasal (Invitrogen) media supplemented with B27 (1×, Invitrogen), GlutaMAX (1 mM, Invitrogen), and D-glucose (4.5 mg/mL, Sigma) at 37° C. and 5% CO2. After 2 days in vitro (DIV), the media was changed to medium containing serum comprised of 50% DMEM (Sigma), 25% heat-inactivated horse serum (Sigma), 25% Hank's balanced salt solution (Sigma), GlutaMAX (1 mM, Invitrogen), and D-glucose (4.5 mg/mL, Sigma). Medium was changed every 2-3 days.
# After 10-14 DIV, OBSCs were exposed to an excitotoxic injury consisting of a 3 hour exposure to 5 mM L-glutamate in SFM (Morrison et al., 2002). […] After the 3 hour exposure, the cultures were placed in fresh serum free media (SFM) containing 75% DMEM, 25% Hank's balanced salt solution, GlutaMAX (1 mM), D-glucose (4.5 mg/mL) until cell death was quantified at 24 hours. […]
# Quantification of cell death has been described previously (Cater et al., 2007; Morrison et al., 2002). […] Percentage cell death was expressed as the number of pixels in the ROI above a threshold in the PI fluorescent image divided by the total number of pixels in the ROI.
# OHSCs were treated with a lethal excitotoxic stimulus (5 mM L-glutamate, 3 hours) that mimics the consequences of stroke and neurodegenerative disease (Morrison et al., 2002; Sundstrom et al., 2005) (FIG. 5A). […] The effects of these compound treatments on propidium iodide (PI) uptake were analyzed, as an indicator of cell death, 24 hours following the end of glutamate treatment, in 3 defined regions of the OHSCs: the dentate gyrus (DG), the CA1 and the CA3 fields of the hippocampus.
# Calu-1 cells = experiment: Erastin-induced ferroptosis in Calu-1 cells, NOX pathway inhibitors; assay type: cell-based, human
# Method: (§1) Cell viability was typically assessed in 384-well format by Alamar Blue (Invitrogen) fluorescence (ex/em 530/590) measured on a Victor3 platereader (Perkin Elmer, Waltham, Mass.). In some experiments, Trypan Blue dye exclusion counting was performed using an automated cell counter (ViCell, Beckman-Coulter Inc., Brea, Calif.). Cell viability in test conditions is reported as a percentage relative to the negative control treatment.
# BJeLR cells = experiment: Erastin-induced death and ROS in BJeLR cells; assay type: cell-based, human; conditions: erastin 10 μM, 6-AN 200 μM
# Method: The day before the experiment, 200,000 cells/well were seeded in 6-well dishes (Corning Inc., Corning, N.Y.). The day of the experiment, cells were treated with test compounds for the indicated times, then harvested by trypsinization, resuspended in 500 μL Hanks Balanced Salt Solution (HBSS, Gibco, Invitrogen Corp., Carlsbad, Calif.) containing either H2DCFDA (25 μM), C11-BODIPY(581/591) (2 μM) or MitoSOX (5 μM) (all from Molecular Probes, Invitrogen) and incubated for 10 minutes at 37° C. in a tissue culture incubator. Cells were then resuspended in 500 μL of fresh HBSS, strained through a […] cell strainer (BD Falcon, BD Biosciences, San Jose, Calif.), and analyzed using a flow cytometer (FACSCalibur or Accuri C6, BD Biosciences), which was equipped with 488-nm laser for excitation. Data was collected from the FL1 (H2DCFDA, C11-BODIPY) or FL2 channel (MitoSOX). A minimum of 10,000 cells were analyzed per condition.
# as §1, with “treatment. […]” for “treatment.”
# BJeLR and HT-1080 cells = experiment: Measurement of ATP levels; assay type: cell-based, human; conditions: normalized to viability
# Method: ATP levels were evaluated using the ApoSENSOR ATP Assay Kit (Biovision Inc., Milpitas, Calif.) according to the manufacturer's instructions. 2000 HT-1080 or BJeLR cells were seeded in 96-well white bottom plates (Falcon). Cells were treated 12 hours later with compound as above for the TEM. Prior to luminescence measurement, medium was removed and cells were lysed and incubated with ATP Monitoring Enzyme. Luminescence was measured using a Victor3 platereader equipped with an infrared emission filter every 30 seconds for 10 minutes. Typically the first reading was used for data analysis. Parallel cell culture treatments were performed in 96-well clear bottom plates and cell viability was determined using Alamar Blue. These values were used to normalize ATP levels to cell viability.
# 143B osteosarcoma cells = experiment: Erastin / RSL3 lethality in 143B ρ0 and ρ+ cells; assay type: cell-based, human; conditions: 24 hours
# Method: as §1
# Because two erastin targets, VDAC2 and VDAC3, reside in the mitochondria, it was hypothesized that erastin-induced death involved aberrant ROS production by the mitochondrial electron transport chain (ETC). […] Furthermore, KRAS-mutant 143B osteosarcoma cells incapable of ETC-dependent ROS formation, due to the depletion of mitochondrial DNA (mtDNA)-encoded transcripts (ρ^0 cells), were as sensitive to erastin and RSL3 as matched mtDNA-wild-type (ρ^+) cells (FIGS. 1E, 1F, and 8C-E). Thus, erastin-induced cell death in human cancer cells involves DFO-sensitive ROS accumulation and can occur in cells lacking a functional ETC. This iron-dependent death phenotype was named ferroptosis.
# system xc− = target: T1, system xc− (Homo sapiens, UniProt Q9UPY5); experiment: [14C]Cystine uptake assay in HT-1080 cells; assay type: cell-based; conditions: Erastin 10 μM, glutamate 50 mM, SAS 1 mM
# T1 construct: endogenous in cells; host or cells: HT-1080 cells (ATCC)
# T1 sequence (Q9UPY5 1-501): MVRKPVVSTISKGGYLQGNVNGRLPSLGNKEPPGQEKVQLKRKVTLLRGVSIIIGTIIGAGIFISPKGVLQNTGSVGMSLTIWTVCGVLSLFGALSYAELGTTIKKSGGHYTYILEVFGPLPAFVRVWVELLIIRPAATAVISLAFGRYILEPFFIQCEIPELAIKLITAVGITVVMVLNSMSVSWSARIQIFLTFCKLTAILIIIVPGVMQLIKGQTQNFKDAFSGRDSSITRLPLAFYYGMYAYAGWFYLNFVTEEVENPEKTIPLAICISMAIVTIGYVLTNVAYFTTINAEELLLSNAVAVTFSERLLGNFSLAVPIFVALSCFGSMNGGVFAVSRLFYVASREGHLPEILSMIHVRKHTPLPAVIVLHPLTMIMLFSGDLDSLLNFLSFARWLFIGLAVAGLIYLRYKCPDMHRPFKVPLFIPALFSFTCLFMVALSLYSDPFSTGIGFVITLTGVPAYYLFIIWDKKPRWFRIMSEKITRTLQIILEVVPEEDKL
# T1 sequence (P08195 1-529 partner): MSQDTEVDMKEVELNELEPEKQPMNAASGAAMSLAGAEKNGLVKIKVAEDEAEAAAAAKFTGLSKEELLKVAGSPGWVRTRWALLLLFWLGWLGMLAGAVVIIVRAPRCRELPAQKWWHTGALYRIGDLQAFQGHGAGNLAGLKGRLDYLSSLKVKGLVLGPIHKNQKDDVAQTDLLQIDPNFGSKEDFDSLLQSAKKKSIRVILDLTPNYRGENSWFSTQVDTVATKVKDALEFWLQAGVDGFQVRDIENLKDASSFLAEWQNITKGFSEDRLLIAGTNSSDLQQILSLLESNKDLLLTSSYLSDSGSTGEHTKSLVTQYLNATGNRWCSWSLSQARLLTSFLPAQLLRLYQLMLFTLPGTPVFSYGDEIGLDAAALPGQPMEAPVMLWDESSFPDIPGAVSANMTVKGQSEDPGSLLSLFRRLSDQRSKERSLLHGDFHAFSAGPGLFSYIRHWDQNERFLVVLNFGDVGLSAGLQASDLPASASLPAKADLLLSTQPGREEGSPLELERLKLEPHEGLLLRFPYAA
# Method: 200,000 HT-1080 cells/well were seeded overnight in 6-well dishes (Corning). […] At this point, in each well the buffer was replaced with 600 μL uptake buffer containing compound and 0.12 μCi (80-110 mCi/mmol) of L-[3,3′-^14C]-cystine (Perkin Elmer) and incubated for 3 minutes at 37° C. Cells were then washed three times with ice-cold uptake buffer and lysed in 500 μL 0.1 M NaOH. To this lysate was added 15 mL of scintillation fluid and radioactive counts per minute were obtained using a scintillation counter. All measurements were performed in triplicate for each condition.
# SLC7A11 = SLC7A11 mRNA levels (RT-qPCR) in HT-1080 cells; assay type: cell-based, human; conditions: 6 hours
# Method: RNA was extracted using the Qiashredder and Qiagen RNeasy Mini kits (Qiagen) according to the manufacturer's protocol. 2 μg total RNA for each sample was used as input for each reverse transcription reaction, performed using the TaqMan RT kit (Applied Biosystems, Life Technologies Corp., Carlsbad, Calif.). Primer pairs were designed for target transcripts using Primer Express 2.0 (Applied Biosystems). Quantitative PCR reactions were performed using the Power SYBR Green PCR Master Mix (Applied Biosystems). Triplicate samples per condition were analyzed on an Applied Biosystems 7300 qPCR instrument using absolute quantification settings. Differences in mRNA levels compared to HPRT1 or ACTB internal reference control were computed between control and experimental conditions using the ΔΔCt method.
structure (smiles),measurement,setting,value
CCOC(=O)c1ccc(N)c(N)c1 [CA1],EC50,"HT-1080 cells [1]; SI Table 8, read-out: EC50",> 10 µM
same,prevention of erastin-induced death,HT-1080 cells [1],destroyed
same,intrinsic antioxidant capability in the DPPH assay,[2],destroyed the antioxidant capability
"Cc1cc(C2CCCCC2)n(O)c(=O)c1 [CPX, ciclopirox olamine, reference compound]",prevention of erastin-induced death,HT-1080 cells [1],suppressed erastin-induced death
same,lysosomal membrane destruction in response to H2O2,HT-1080 cells [3],protects from lysosomal rupture
same,"glutamate-induced cell death (PI uptake) in DG, CA1, CA3",[4],attenuated significantly
"NC(=O)c1ccc(N)nc1 [Compound 6-AN, 6-aminonicotinamde]",suppression of erastin-induced ferroptosis,Calu-1 cells,strongly suppressed
same,erastin-induced cell death and ROS production,BJeLR cells,prevented cell death as well as ROS production
"OO [Compound H2O2, hydrogen peroxide]",intracellular ATP,BJeLR and HT-1080 cells,substantial depletion of intracellular ATP
COC(=O)c1ccc([C@@H]2c3[nH]c4ccccc4c3C[C@@H](C(=O)OC)N2C(=O)CCl)cc1 [RSL3],sensitivity of ρ0 versus ρ+ cells,143B osteosarcoma cells,as sensitive
same,Na+-independent uptake of [14C]cystine,system xc−,had no effect on this process
"OCCS [β-ME, β-mercaptoethanol, reference compound]",prevention of erastin-induced death,HT-1080 cells [1],strongly inhibited cell death
same,effect on erastin/SAS-induced SLC7A11 upregulation,SLC7A11,suppressed
